Source: ChEMBL document CHEMBL4376854, “Investigation of the Adrenergic and Opioid Binding Affinities, Metabolic Stability, Plasma Protein Binding Properties, and Functional Effects of Selected Indole-Based Kratom Alkaloids” (J Med Chem, 2020)
The source made the active and inactive calls. No cut-off for these calls is given here.

What was measured:
Rattus norvegicus [1] = assay: Antinociceptive activity in Sprague-Dawley rat dosed intravenously using cumulative dosing every 5 mins until rat maxed-out on hot plate by hot plate test; format: functional; conditions: iv
Rattus norvegicus [2] = assay: Antinociceptive activity in Sprague-Dawley rat dosed intravenously using cumulative dosing every 5 mins until rat maxed-out on hot plate by hot plate test relative to control; format: functional
Rattus norvegicus [3] = assay: Antinociceptive activity in Sprague-Dawley rat dosed intravenously using cumulative dosing every 5 mins until rat maxed-out on hot plate co-treated with 0.1 mg/kg naltrexone by hot plate test; format: functional, organism-based
[4] = target: T1, Alpha-1B adrenergic receptor (Homo sapiens) (UniProt P35368); conditions: CHO, 100 nM
T1 sequence (whole entry): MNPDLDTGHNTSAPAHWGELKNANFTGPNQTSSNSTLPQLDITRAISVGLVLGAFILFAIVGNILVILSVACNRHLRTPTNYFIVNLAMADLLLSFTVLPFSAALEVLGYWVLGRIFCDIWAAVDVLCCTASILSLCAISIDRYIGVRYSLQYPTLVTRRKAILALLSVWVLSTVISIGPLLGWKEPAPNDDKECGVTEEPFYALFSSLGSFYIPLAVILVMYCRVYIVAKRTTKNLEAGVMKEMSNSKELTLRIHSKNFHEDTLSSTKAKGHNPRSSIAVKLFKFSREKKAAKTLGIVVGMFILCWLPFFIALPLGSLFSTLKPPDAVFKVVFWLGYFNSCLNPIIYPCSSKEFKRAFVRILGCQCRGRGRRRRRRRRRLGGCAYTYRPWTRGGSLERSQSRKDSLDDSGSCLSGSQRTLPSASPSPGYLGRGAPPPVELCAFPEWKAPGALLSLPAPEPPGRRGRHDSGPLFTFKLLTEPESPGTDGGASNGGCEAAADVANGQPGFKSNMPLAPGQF

[5] = target: T2, Alpha-1A adrenergic receptor (Homo sapiens) (UniProt P35348); conditions: CHO, 10000 nM
T2 sequence (whole entry): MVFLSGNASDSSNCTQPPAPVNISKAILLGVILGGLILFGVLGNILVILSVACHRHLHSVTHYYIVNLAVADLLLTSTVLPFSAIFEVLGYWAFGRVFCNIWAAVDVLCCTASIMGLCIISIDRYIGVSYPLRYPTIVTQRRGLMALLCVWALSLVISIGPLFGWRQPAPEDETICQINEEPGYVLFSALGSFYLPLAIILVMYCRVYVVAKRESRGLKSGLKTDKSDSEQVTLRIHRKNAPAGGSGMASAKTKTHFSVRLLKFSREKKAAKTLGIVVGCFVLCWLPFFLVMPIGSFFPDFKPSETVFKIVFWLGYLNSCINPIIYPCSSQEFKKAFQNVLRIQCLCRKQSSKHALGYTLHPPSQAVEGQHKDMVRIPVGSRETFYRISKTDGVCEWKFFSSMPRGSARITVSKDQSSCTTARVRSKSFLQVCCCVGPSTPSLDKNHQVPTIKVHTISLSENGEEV

[6] = target: T1, Alpha-1B adrenergic receptor (Homo sapiens); conditions: CHO, 10000 nM
[7] = target: T3, Alpha-2A adrenergic receptor (Homo sapiens) (UniProt P08913); conditions: CHO, 10000 nM
T3 sequence (whole entry): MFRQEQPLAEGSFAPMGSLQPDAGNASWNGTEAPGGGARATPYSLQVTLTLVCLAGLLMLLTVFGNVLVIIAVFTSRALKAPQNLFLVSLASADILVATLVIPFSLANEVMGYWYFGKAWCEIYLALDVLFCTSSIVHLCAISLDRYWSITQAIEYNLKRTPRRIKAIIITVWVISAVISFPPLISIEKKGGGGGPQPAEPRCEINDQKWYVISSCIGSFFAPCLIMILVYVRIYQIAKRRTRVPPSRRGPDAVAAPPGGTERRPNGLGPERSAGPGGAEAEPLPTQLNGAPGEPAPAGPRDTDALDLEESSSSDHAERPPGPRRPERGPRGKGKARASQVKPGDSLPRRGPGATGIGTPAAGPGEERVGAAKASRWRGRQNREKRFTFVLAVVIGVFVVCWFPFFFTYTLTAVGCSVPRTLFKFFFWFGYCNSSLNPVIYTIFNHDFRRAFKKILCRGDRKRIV

Mu-type opioid receptor = Mu-type opioid receptor (Homo sapiens, UniProt P35372); conditions: HEK293, 10000 nM
Chain of Mu-type opioid receptor (P35372 whole entry): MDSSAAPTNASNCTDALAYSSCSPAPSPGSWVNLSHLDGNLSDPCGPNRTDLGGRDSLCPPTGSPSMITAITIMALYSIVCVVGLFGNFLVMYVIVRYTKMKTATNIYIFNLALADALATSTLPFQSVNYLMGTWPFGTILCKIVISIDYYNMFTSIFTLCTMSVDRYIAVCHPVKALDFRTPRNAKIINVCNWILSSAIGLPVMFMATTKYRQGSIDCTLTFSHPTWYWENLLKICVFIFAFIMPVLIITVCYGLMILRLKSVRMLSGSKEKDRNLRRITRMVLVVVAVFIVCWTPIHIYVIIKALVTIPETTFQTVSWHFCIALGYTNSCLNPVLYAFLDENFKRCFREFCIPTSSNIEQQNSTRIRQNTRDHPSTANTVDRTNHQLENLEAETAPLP

[8] = human, microsomes, 1 h
[9] = human, microsomes, 1 µM
[10] = target: T4, Alpha-1A adrenergic receptor (Homo sapiens, UniProt P35348); assay: Displacement of [3H]prazosin from human recombinant adrenergic alpha-1A receptor expressed in CHO cell membranes incubated for 60 mins
T4 sequence (P35348 whole entry): T2 sequence (whole entry)

[11] = target: T5, Alpha-2B adrenergic receptor (Homo sapiens, UniProt P18089); assay: biochemical; format: cell-based, CHO
T5 sequence (P18089 whole entry): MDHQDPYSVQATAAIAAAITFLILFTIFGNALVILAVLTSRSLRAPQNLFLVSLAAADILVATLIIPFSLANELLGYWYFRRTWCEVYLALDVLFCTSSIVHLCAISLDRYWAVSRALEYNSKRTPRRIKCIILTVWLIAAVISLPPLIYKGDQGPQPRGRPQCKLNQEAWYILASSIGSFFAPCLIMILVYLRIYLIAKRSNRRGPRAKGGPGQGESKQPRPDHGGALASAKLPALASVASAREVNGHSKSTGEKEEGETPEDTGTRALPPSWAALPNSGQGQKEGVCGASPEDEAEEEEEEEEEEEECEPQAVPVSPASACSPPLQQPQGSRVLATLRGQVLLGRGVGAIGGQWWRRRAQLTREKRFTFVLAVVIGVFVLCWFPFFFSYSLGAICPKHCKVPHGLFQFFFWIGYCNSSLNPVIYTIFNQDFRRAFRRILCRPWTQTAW

[12] = target: T6, Alpha-2C adrenergic receptor (Homo sapiens, UniProt P18825); assay: biochemical
T6 sequence (P18825 whole entry): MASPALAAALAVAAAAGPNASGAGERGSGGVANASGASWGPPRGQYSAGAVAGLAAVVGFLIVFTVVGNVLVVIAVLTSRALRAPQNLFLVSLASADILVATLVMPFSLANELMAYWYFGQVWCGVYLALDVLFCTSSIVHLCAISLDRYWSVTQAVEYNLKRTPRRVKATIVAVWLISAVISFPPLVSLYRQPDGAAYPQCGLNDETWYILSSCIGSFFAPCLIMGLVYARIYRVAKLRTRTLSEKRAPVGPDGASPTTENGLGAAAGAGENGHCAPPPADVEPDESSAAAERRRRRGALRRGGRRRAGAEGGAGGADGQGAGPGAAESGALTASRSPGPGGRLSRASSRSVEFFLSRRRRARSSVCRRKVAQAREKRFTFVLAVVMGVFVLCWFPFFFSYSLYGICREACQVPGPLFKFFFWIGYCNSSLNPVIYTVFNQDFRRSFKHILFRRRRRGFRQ

Row | Compound | ED50 (Rattus norvegicus [1]) | MPE (Rattus norvegicus [2]) | Activity (Rattus norvegicus [3]) | inhibition [4] | inhibition [5] | inhibition [6] | inhibition [7] | inhibition (Mu-type opioid receptor) | Kel [8] | Fu [9] | Ki [10] | Ki [11] | Emax (Rattus norvegicus [2]; Rattus norvegicus, Sprague-Dawley, iv, 5 min) | Ki [12]
1 | CC[C@@H]1CN2CCc3c([nH]c4cccc(OC)c34)[C@H]2C[C@@H]1/C(=C\OC)C(=O)OC | 6.25 mg/kg | 100% | inactive | 25.2% | 81.1% | 95.6% | 73.1% | 98% | 0.0166 min⁻¹ | 0.276 |  |  |  | 
2 | CC[C@@H]1CN2CCc3c([nH]c4cccc(OC)c34)[C@@H]2C[C@@H]1/C(=C\OC)C(=O)OC |  |  | inactive |  | 83.5% | 40.3% | 40.4% | 93.7% | 0.0347 min⁻¹ | 0.307 | 1340 nM | 9290 nM | 17.3% | 2320 nM
